The values below come from PubChem BioAssay AID504745 (National Center for Advancing Translational Sciences (NCATS), 2011).

This data set relates to Caco-2 bidirectional permeability, efflux ratio, LC-MS/MS. As to the kind of experiment: Inhibitors of N370S glucocerebrosidase as a Potential Chaperone Treatment of Gaucher Disease: Efflux Ratio Profiling. To be noted: active compounds read low. An excerpt: Glucocerebrosidase (GC) catalyzes the hydrolysis of beta-glucocerebroside to glucose and ceramide in lysosomes. Mutations in the glucocerebrosidase gene result in Gaucher disease, an autosomal recessive lysosomal storage disorder. Many of the mutations encountered in patients with Gaucher disease are missense alterations that may cause misfolding, decreased stability and/or mistrafficking of this lysosomal protein. […] These inhibitors include iminosugar analogs and three non-iminosugar inhibitors identified from a previous HTS of 62,000 compounds with the wild type recombinant enzyme. After further testing a probe has been identified and was characterized though AMDE tests. This bioassays provides profiling data on Caco-2 cell permeability of leads compounds developed for the HPGD project. This in vitro model is often predictive of in vivo efflux of the compound by measuring the ratio of transport in and out the plasma membrane of the Caco2-cell line. NIH Chemical Genomics Center [NCGC] NIH Molecular Libraries Probe Production Centers Network [MLPCN] MLPCN Grant: MH086442-01 Assay Submitter (PI): Wei Zheng
1. […] The T0, LY and T90, LY plates are read by FlexStation 3 at excitation of 485 nm and emission of 535 nm to determine LY permeability. […]

For the molecule `S=C(NCCCc1cnc[nH]1)NCCCN(Cc1ccc(Cl)c(Cl)c1)c1ccc(Br)cn1`, the efflux ratio was 9.9.
